Assays:
bone marrow = test: Histopathology of sternal bone marrow (cellularity grade, megakaryocytes) after sublethal TBI or sham irradiation; assay type: in vivo, mice
Description: To determine the pathophysiological effects of RRx-001 on hematopoietic protection in mice, CD2F1 male mice were treated with 10 mg/kg RRx-001 or the vehicle control 24 hours prior to a sublethal dose of TBI (7 Gy at 0.6 Gy/min using High-level Cobalt-60) or sham irradiation (day 0) according to the table below.
CD2F1 male mice (n=3/group) were divided into 4 experimental groups: 1) irradiation+vehicle, 2) irradiation+RRx-001, 3) sham-irradiation+vehicle and 4) sham-irradiation+RRx-001. Either 10 mg/kg RRx-001 or the vehicle control were IP injected 24 hours prior to either irradiation or sham-irradiation (day 0). On days 2, 7, 14, 21, and 28 post-irradiation (day 0) mice were humanely euthanized. Blood, bone marrow, and sternebrae were then collected. This experiment was performed in duplicate for a total of n=6 mice/group/time point.
Sternebrae from euthanized mice (n=6/group/time point) were collected on days 2, 7, 14, 21 and 28 post-irradiation. Sternebrae were fixed in 10% zinc-buffered formalin for at least 24 hours and up to 7 days. Fixed sternebrae were decalcified for 3 hr in 12-18% sodium EDTA (pH 7.4-7.5) and specimens dehydrated using graded ethanol concentrations and embedded in paraffin. Longitudinal 4μm sections were stained with regular hematoxylin and eosin. Two board-certified pathologist conducted histopathological evaluation of the samples. One of the pathologist scored all the samples blindly. Bone marrow was evaluated in situ within sternebrae and graded (Grade 1: <10%; Grade 2: 11-30%; Grade 3: 31-60%; Grade 4: 61-89%; Grade 5: >90%) for total cellularity. Megakaryocytes were also quantified based on the average per 10 high power fields (HPF) at 400× magnification using a BX43 or BX53 microscope (Olympus, Minneapolis, Minn.). Images were captured with an Olympus DP22 camera and imported into Olympus Cellsens Standard software for review.
Blood parameters were compared between treatment groups using an analysis of variance (ANOVA). The Wilcoxon test was also used for sensitivity and to potentially address data departures from normality. A longitudinal mixed model repeated measures was also implemented to provide a more complete data analysis of the sham-irradiated treatment groups' difference in overall time profile mean based on the blood parameters. Bone marrow data (megakaryocytes and grade) statistical analysis was carried out using a parametric test consisting of a general linear model analysis of variance (ANOVA with factors consisting of treatment group and pathologist) and the Kruskal-Wallis nonparametric test. The statistical data analysis was carried out using R software (Version 3.4.3, 2016) and the graphs made using GraphPad Prism version 7.03 (GraphPad Software, La Jolla, Calif.).
To determine the effect of RRx-001 on bone marrow, a histopathological analysis of bone marrow sternebrae was performed and the cellularity, as reported by grade (grade 1: <10%; grade 2: 11-30%; grade 3: 31-60%; grade 4: 61-89%; grade 5: >90% cellularity), and megakaryocyte numbers (averaged per 10 high-powered fields; HPF) were ascertained by two pathologists, one of which scored all the samples blindly (TAS, WEC).

NQO-1 = test: Western blot of NQO-1 in U937 macrophages; assay type: cell-based, human; conditions: 3 mM RRx-001 for 16 hours, sham and irradiated groups
Description: Expression of ARE proteins was assayed in hMSC, macrophages, and monocytes following in vitro irradiation of the cells, which were pretreated with RRx-001 or vehicle. Protein expression was assayed by Western blotting and protein quantification.
hMSC were treated for 16 hours with […] RRx-001 or the vehicle control (0.05% DMSO), irradiated at 10 Gy or sham-irradiated and the protein collected 8 or 24 hours post-sham or irradiation. Human monocytic leukemic THP-1 and U937 cells were differentiated into macrophages with 50 nM Phorbol 12-myristate 13-acetate (PMA) for 24 hours before treatment. Differentiated and non-differentiated cells were treated with […] RRx-001 or 0.05% DMSO (vehicle control) for 16 hours prior to radiation. The cells were irradiated at 5 Gy or sham-irradiated and collected 4-8 hours later for both analysis. For each experiment, duplicates of each sample were run.

O=C(CBr)N1CC([N+](=O)[O-])([N+](=O)[O-])C1 [RRx-001, 2-bromo-1-(3,3-dinitroazetidin-1-yl)ethan-1-one]
bone marrow cellularity compared to the vehicle control (bone marrow; 7 Gy TBI, 10 mg/kg IP 24 hours prior, day 7): slight increase in cellularity | hematopoietic recovery as determined by the grade of bone marrow cellularity compared with control (bone marrow; 7 Gy TBI, 10 mg/kg IP 24 hours prior, day 14): significantly accelerated hematopoietic recovery | number of megakaryocytes (bone marrow; 7 Gy TBI, 10 mg/kg IP, between days 7-28): steady increase | number of megakaryocytes (bone marrow; 7 Gy TBI, 10 mg/kg IP, day 2): reduced | number of megakaryocytes (bone marrow; 7 Gy TBI, 10 mg/kg IP, day 7): severely depleted | bone marrow cellularity grade (bone marrow; after irradiation (7 Gy TBI), 10 mg/kg IP 24 hours prior): 1 (grade 1: <10%) | number of megakaryocytes (bone marrow; sham-irradiated, 10 mg/kg IP, day 14, vs vehicle control): significantly higher than the vehicle control | overall cellularity of the bone marrow (bone marrow; sham-irradiated, 10 mg/kg IP, duration of the study): ≥ 90% | bone marrow cellularity grade (bone marrow; sham-irradiated, 10 mg/kg IP, duration of the study (days 2-28)): 5 (grade 5: >90% cellularity) | NQO-1 expression (NQO-1): no change
